How the values were obtained:
Format in all cases: binding
[1] = molecular target: TEAD2 TAZ (amino acids 13-57) (Homo sapiens, UniProt Q15562); test: TEAD2-TAZ HTRF (TR-FRET) protein-protein interaction assay; settings: for TEAD2 TAZ HTRF combined: Max % Inhibition: TEAD2, TAZ peptide; for EC50: TEAD2-TAZ HTRF, TR-FRET 665 nm/615 nm, read-out: TEAD2 TAZ HTRF combined: EC50
Protocol: (§1) Purified His-tagged TEAD protein (YAP Binding Domain, amino acids 217-447) is pre-incubated with Europium labelled anti-His antibody tracer (Perkin Elmer Cat #AD0110). Small molecule Inhibitors are then incubated with the TEAD-Eu protein complex for 30 minutes to allow for binding to TEAD protein. Biotinylated YAP peptide for TEAD-YAP assays (AA's 50-100) or biotinylated TAZ peptide for TEAD-TAZ assays (AA's 13-57) that has been pre-incubated with streptavidin-xl665 acceptor (CIS-Bio Cat #610SAXAC) or is added to the compound-TEAD mix. The TEAD-YAP-inhibitor mixture is then incubated for 60 minutes at room temperature. All reactions are carried out in a polystyrene plate. After 60 minutes, the plate is read on a plate reader using TR-FRET mode with wavelengths of 665 nm/615 nm. If YAP or TAZ binds to TEAD as expected, a TR-FRET signal results from the proximity of YAP or TAZ and TEAD after binding. If an inhibitor such as peptide 17 (Selleckchem Cat #58164) interferes with YAP-TEAD or TAZ-TEAD binding, the disruption of the YAP or TAZ:TEAD interaction results in a decrease in TR-FRET signal. The potency of compounds as YAP:TEAD or TAZ:TEAD protein-protein interaction (PPi) inhibitors is determined by an IC50 or EC50 value generated using a non-linear four parameter curve fit.

[2] = molecular target: TEAD1 YAP50-100 (Homo sapiens, UniProt P28347); test: TEAD1-YAP HTRF (TR-FRET) protein-protein interaction assay; settings: TEAD1, YAP peptide 50-100, HTRF; for EC50: read-out: TEAD1 YAP50-100 HTRF combined: EC50
Chain of TEAD1 YAP50-100 (P28347 167-426 limits assumed): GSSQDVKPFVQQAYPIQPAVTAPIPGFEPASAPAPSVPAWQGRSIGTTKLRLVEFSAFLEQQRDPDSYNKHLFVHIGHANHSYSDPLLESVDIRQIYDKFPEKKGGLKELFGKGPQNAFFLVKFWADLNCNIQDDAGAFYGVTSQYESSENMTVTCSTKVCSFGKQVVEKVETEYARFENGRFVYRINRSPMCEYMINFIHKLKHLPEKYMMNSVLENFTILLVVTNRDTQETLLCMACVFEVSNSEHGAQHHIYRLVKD
Protocol: as §1

[3] = molecular target: TEAD3 YAP50-100 (Homo sapiens, UniProt Q99594); test: TEAD3-YAP HTRF (TR-FRET) protein-protein interaction assay; settings: TEAD3, YAP peptide 50-100, HTRF; for EC50: read-out: TEAD3 YAP50-100 HTRF combined: EC50
Chain of TEAD3 YAP50-100 (Q99594 173-435 limits assumed): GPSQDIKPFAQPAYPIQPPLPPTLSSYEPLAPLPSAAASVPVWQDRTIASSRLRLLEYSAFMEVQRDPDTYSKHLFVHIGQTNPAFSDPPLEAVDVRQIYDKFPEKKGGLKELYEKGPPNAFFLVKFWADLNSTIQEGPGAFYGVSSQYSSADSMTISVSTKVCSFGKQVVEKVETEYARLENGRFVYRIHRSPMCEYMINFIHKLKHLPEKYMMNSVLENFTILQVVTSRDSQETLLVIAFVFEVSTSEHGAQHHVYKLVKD
Protocol: as §1

[4] = molecular target: TEAD4 YAP50-100 (Homo sapiens, UniProt Q15561); test: TEAD4-YAP HTRF (TR-FRET) protein-protein interaction assay; settings: TEAD4, YAP peptide 50-100, HTRF; for EC50: read-out: TEAD4 YAP50-100 HTRF combined: EC50
Chain of TEAD4 YAP50-100 (Q15561 217-434 limits assumed): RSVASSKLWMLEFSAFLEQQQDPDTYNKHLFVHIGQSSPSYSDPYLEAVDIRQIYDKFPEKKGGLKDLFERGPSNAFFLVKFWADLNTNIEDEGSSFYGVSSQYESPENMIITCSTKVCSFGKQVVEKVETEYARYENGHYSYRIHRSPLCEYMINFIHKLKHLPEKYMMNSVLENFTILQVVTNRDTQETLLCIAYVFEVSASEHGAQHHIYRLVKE
Protocol: as §1

[5] = molecular target: TEAD2 YAP50-100 (Homo sapiens, UniProt Q15562); test: TEAD2-YAP HTRF (TR-FRET) protein-protein interaction assay; settings: TEAD2, YAP peptide 50-100, HTRF; for EC50: read-out: TEAD2 YAP50-100 HTRF combined: EC50
Chain of TEAD2 YAP50-100 (Q15562 217-447): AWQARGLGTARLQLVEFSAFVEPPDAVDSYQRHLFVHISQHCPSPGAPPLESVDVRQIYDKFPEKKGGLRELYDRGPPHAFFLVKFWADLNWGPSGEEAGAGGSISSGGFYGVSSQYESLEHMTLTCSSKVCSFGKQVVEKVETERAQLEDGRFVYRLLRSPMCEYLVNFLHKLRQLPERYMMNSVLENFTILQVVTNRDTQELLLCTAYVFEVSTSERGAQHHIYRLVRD
Protocol: as §1

[6] = molecular target: TEAD3 TAZ (amino acids 13-57) (Homo sapiens, UniProt Q99594); test: TEAD3-TAZ HTRF (TR-FRET) protein-protein interaction assay; settings: for TEAD3 TAZ HTRF combined: Max % Inhibition: TEAD3, TAZ peptide; for EC50: TEAD3-TAZ HTRF, TR-FRET 665 nm/615 nm, read-out: TEAD3 TAZ HTRF combined: EC50
Chain of TEAD3 TAZ (amino acids 13-57) (Q99594 173-435 limits assumed): as the sequence (Q99594 173-435 limits assumed) above
Protocol: as §1

[7] = molecular target: TEAD1 TAZ (amino acids 13-57) (Homo sapiens, UniProt P28347); test: TEAD1-TAZ HTRF (TR-FRET) protein-protein interaction assay; settings: for TEAD1 TAZ HTRF combined: Max % Inhibition: TEAD1, TAZ peptide; for EC50: TEAD1-TAZ HTRF, TR-FRET 665 nm/615 nm, read-out: TEAD1 TAZ HTRF combined: EC50
Chain of TEAD1 TAZ (amino acids 13-57) (P28347 167-426 limits assumed): as the sequence (P28347 167-426 limits assumed) above
Protocol: as §1

[8] = molecular target: TEAD4 TAZ (amino acids 13-57) (Homo sapiens, UniProt Q15561); test: TEAD4-TAZ HTRF (TR-FRET) protein-protein interaction assay; settings: for TEAD4 TAZ HTRF combined: Max % Inhibition: TEAD4, TAZ peptide; for EC50: TEAD4-TAZ HTRF, TR-FRET 665 nm/615 nm, read-out: TEAD4 TAZ HTRF combined: EC50
Chain of TEAD4 TAZ (amino acids 13-57) (Q15561 217-434 limits assumed): as the sequence (Q15561 217-434 limits assumed) above
Protocol: as §1

Chain of TEAD2 TAZ (amino acids 13-57) (Q15562 217-447): as the sequence (Q15562 217-447) above

| SMILES | TEAD2 TAZ HTRF combined: Max % Inhibition [1] [%] | EC50 [1] [nM] | TEAD1 YAP50-100 HTRF combined: Max % Inhibition [2] [%] | EC50 [2] [nM] | TEAD3 YAP50-100 HTRF combined: Max % Inhibition [3] [%] | EC50 [3] [nM] | TEAD4 YAP50-100 HTRF combined: Max % Inhibition [4] [%] | EC50 [4] [nM] | TEAD2 YAP50-100 HTRF combined: Max % Inhibition [5] [%] | EC50 [5] [nM] | TEAD3 TAZ HTRF combined: Max % Inhibition [6] [%] | EC50 [6] [nM] | TEAD1 TAZ HTRF combined: Max % Inhibition [7] [%] | EC50 [7] [nM] | TEAD4 TAZ HTRF combined: Max % Inhibition [8] [%] | EC50 [8] [nM] |
| --- | --- | --- | --- | --- | --- | --- | --- | --- | --- | --- | --- | --- | --- | --- | --- | --- |
| C[C@H]1[C@@H](CF)CN1C(=O)c1c(-c2cnccn2)nn2c(=O)cc(-c3ccc(C4CCCCC4)cc3)[nH]c12 (single isomer, unassigned) [Isomer A, Example 39] | 77.0 | 10 | 76.0 | 60 | 71.0 | 120 | 51.5 | 60 | 76.0 | 10 | 69.5 | 130 | 69.5 | 70 | 58.0 | 60 |
| C[C@@H]1[C@H](CF)CN1C(=O)c1c(-c2ncccn2)nn2c(=O)cc(-c3ccc(CC4CCCC4)cc3)[nH]c12 (single isomer, unassigned) [Isomer B, Example 43] | 71.5 | 20 | 65.0 | 50 | 66.0 | 140 | 51.0 | 370 | 73.0 | 20 | 65.5 | 150 | 60.0 | 50 | 50.0 | 270 |
| CCCCCCC/C=C/c1cc(=O)n2nc(-c3nccnc3C)c(C(=O)N3C[C@H](CF)[C@@H]3C)c2[nH]1 [Compound 70, 3-((2S,3S)-3-(fluoromethyl)-2-methylazetidine-1-carbonyl)-2-(3-methylpyrazin-2-yl)-5-((E)-non-1-en-1-yl)pyrazolo[1,5-a]pyrimidin-7(4H)-one] | 66.0 | 10 | 58.0 | 10 | 64.0 | 40 | 58.0 | 1300 | 67.0 | – | 52.5 | 30 | 54.5 | 20 | 63.5 | 970 |
| CCCCCCCCCc1cc(=O)n2nc(-c3nccnc3C)c(C(=O)N3C[C@H](CF)[C@@H]3C)c2[nH]1 [Compound 71, 3-((2S,3S)-3-(fluoromethyl)-2-methylazetidine-1-carbonyl)-2-(3-methylpyrazin-2-yl)-5-nonylpyrazolo[1,5-a]pyrimidin-7(4H)-one] | 64.0 | 10 | 53.0 | 50 | 61.0 | 60 | 48.5 | 3450 | 64.0 | 10 | 49.0 | 50 | 52.5 | 50 | 56.5 | 3000 |

More lines, now with the values ahead:

| TEAD2 TAZ HTRF combined: Max % Inhibition [1] [%] | EC50 [1] [nM] | TEAD1 YAP50-100 HTRF combined: Max % Inhibition [2] [%] | EC50 [2] [nM] | TEAD3 YAP50-100 HTRF combined: Max % Inhibition [3] [%] | EC50 [3] [nM] | TEAD4 YAP50-100 HTRF combined: Max % Inhibition [4] [%] | EC50 [4] [nM] | TEAD2 YAP50-100 HTRF combined: Max % Inhibition [5] [%] | EC50 [5] [nM] | TEAD3 TAZ HTRF combined: Max % Inhibition [6] [%] | EC50 [6] [nM] | TEAD1 TAZ HTRF combined: Max % Inhibition [7] [%] | EC50 [7] [nM] | TEAD4 TAZ HTRF combined: Max % Inhibition [8] [%] | EC50 [8] [nM] | SMILES |
| --- | --- | --- | --- | --- | --- | --- | --- | --- | --- | --- | --- | --- | --- | --- | --- | --- |
| 60.0 | 10 | 57.0 | 60 | 49.5 | 100 | 33.0 | 30 | 61.0 | 10 | 43.0 | 110 | 57.0 | 70 | 35.0 | 20 | Cc1nccnc1-c1nn2c(=O)cc(-c3ccc(C(F)(F)C4CCCC4)cc3)[nH]c2c1C(=O)N1CC(CF)C1 [Compound 56, 5-(4-(Cyclopentyldifluoromethyl)phenyl)-3-(3-(fluoromethyl)azetidine-1-carbonyl)-2-(3-methylpyrazin-2-yl)pyrazolo[1,5-a]pyrimidin-7(4H)-one] |
| 61.5 | 10 | 71.0 | 70 | 65.0 | 90 | 45.0 | 180 | 61.5 | 10 | 51.5 | 80 | 64.5 | 60 | 31.5 | 120 | Cc1c(-c2nn3c(=O)cc(-c4ccc(C5CCCCC5)cc4)[nH]c3c2C(=O)N2CC(CF)C2)ncn1C [Compound 30, 5-(4-Cyclohexylphenyl)-2-(1,5-dimethyl-1H-imidazol-4-yl)-3-(3-(fluoromethyl)azetidine-1-carbonyl)pyrazolo[1,5-a]pyrimidin-7(4H)-one] |
| 64.0 | 20 | 64.0 | 210 | 65.0 | 220 | 41.0 | 200 | 61.5 | 30 | 61.0 | 250 | 47.5 | 220 | 37.5 | 130 | O=C(c1c(-c2ccccc2)nn2c(=O)cc(-c3ccc(C4CCCCC4)cc3)[nH]c12)N1CC(CF)C1 [Compound 38, 5-(4-Cyclohexylphenyl)-3-(3-(fluoromethyl)azetidine-1-carbonyl)-2-phenylpyrazolo[1,5-a]pyrimidin-7(4H)-one] |
| 55.5 | 10 | 73.0 | 50 | 54.5 | 90 | 47.0 | 20 | 58.5 | 10 | 43.0 | 90 | 67.0 | 60 | 49.0 | 20 | Cc1ccnc(-c2nn3c(=O)cc(-c4ccc(C5CCCCC5)cc4)[nH]c3c2C(=O)N2CC(CF)C2)c1 [Compound 18, 5-(4-Cyclohexylphenyl)-3-(3-(fluoromethyl)azetidine-1-carbonyl)-2-(4-methylpvridin-2-yl)pyrazolo[1,5-a]pyrimidin-7(4H)-one] |
